Measured values: patent publication US20040261961A1, “Wood treatment solution and process for improving the preservation of wood” (priority 2001, published 2004)
Like-named read-outs stand apart in the source and are kept apart here.

What was measured:
rot fungi = conditions: closed and humid space containing rot fungi; potassium formate dissolved in water
Description: Next, a test was performed in which a piece of wood was impregnated with potassium formate. This and an untreated wood specimen were placed in a closed and humid space containing rot fungi.

[1] = board kept several days in strong potassium formate solution; buried in garden plot from summer to following summer
Source text: A board specimen was kept for several days in a strong potassium formate solution. After impregnation, the board was in summer buried in a garden plot together with untreated board taken from the same board specimen.

Coniophora puteana = tested on: Coniophora puteana
Description: (§1) The tests were carried out by using test specimens made from spruce or pine wood. The size of specimens made of pine was approx. 20×15×2.4 cm^3 and respectively the size of the specimens made from spruce was approx. 20×12×7.2 cm^3. One half of the wood specimens were subjected to a heat treatment at 190° C. […] One half of the specimens were subjected to no heat treatment. The wood specimens were measured and weighed before the chemical treatment. Neither chemical nor heat treatment was carried out on the reference specimens that were used in the accelerated rotting tests described below.
(§2) The temperature of the solution was 40-50° C. In the vessel there prevailed a pressure of approx. 150 kPa (1.5 bar), by means of which the solution was “forced” into the wood. The treatment time was 2 h. After the chemical treatment the wood specimens were dried in an incubator overnight at 80-90° C.
(§3) In the next phase the specimens treated above were sent to a rot fungus test. European standard EN 113 was applied in carrying out the test. The wood was exposed to conditions as rigorous as possible with respect to decay: temperature was approx. 30° C. and humidity 100%, and bad rot fungi such as Poria placenta, Gloeophyllum trabeum and Coniophora puteana had been introduced into the testing space (culture flask). These fungi are present in all rotting objects. The test lasted for 4 months. […] The rotting of such wood should in an accelerated rotting test be such that the weight loss is at least 20% with each fungus species. The specimens were weighed before the beginning of the test.
(§4) The results of the accelerated rotting tests for spruce are shown in Tables 2-4 and for pine in Tables 5-7.

Gloeophyllum trabeum = tested on: Gloeophyllum trabeum
Description: as §1, §2, §3, §4

Poria placenta = tested on: Poria placenta
Description: as §1, §2, §3, §4

[2] = tested on: Poria placenta, Gloeophyllum trabeum and Coniophora puteana; conditions: Ca formate treatment in addition to heat treatment
Description: as §3, §4

SMILES | Decay activity in the experimental space (rot fungi) | Decay of impregnated board after burial [1] | Rot resistance class according to standard EN 350-1994 (Coniophora puteana; treated pine) | Rot resistance class according to standard EN 350-1994 (Coniophora puteana; treated spruce) | Rot resistance class according to standard EN 350-1994 (Gloeophyllum trabeum; treated pine) | Rot resistance class according to standard EN 350-1994 (Gloeophyllum trabeum; treated spruce) | Rot resistance class according to standard EN 350-1994 (Poria placenta; treated pine) | Rot resistance class according to standard EN 350-1994 (Poria placenta; treated spruce) | Rotting of wood (overall conclusion) [2]
O=C[O-].[K+] [potassium formate] | inhibited all decay activity | without any decay |  |  |  |  |  |  | 
O=C[O-].O=C[O-].[Ca+2] [Ca formate, calcium formate] |  |  | Class 1 | Class 1 | Class 1 | Class 1 | Class 3 | Class 3 | prevented almost completely
